Experimental findings from article PMC5605456 (Biochemistry, 2017) are described below.

Like-named read-outs stand apart in the source and are kept apart here.

What is called Kd is the free concentration of one partner at which half of the binding sites on the other are occupied at equilibrium, for simple one-to-one binding.

Experiment [1] deals with T1, CmlI (Streptomyces venezuelae, UniProt F2RB83). As to the kind of experiment: stopped-flow at […] nm, hyperbolic fit of reciprocal relaxation times. The format is binding.
T1 sequence (F2RB83 whole entry): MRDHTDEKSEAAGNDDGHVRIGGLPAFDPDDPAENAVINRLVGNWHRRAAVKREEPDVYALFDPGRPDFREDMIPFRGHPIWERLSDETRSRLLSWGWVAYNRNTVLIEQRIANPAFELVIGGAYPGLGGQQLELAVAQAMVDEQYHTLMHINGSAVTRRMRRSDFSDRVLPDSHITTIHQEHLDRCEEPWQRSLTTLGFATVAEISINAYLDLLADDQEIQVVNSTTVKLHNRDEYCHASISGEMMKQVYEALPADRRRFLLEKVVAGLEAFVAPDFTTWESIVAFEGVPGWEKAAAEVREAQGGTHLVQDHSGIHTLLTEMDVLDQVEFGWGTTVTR
In experiment [2] the target is T1, CmlI. Described as above. It counts as binding. This is another data set of the same source.

`Nc1ccc([C@@H](O)[C@@H](CO)NC(=O)C(Cl)Cl)cc1` [NH2-CAM, D-threo-1-(4-aminophenyl)-2-dichloroacetylamino-1,3-propanediol] returned a Kd on CmlI [1] of 8.5 ± 1.5 mM. At CmlI [2], `O=C(N[C@H](CO)[C@H](O)c1ccc(NO)cc1)C(Cl)Cl` [NH(OH)-CAM] yielded a Kd of 1.1 ± 0.05 mM.

In turn, `O=Nc1ccc([C@@H](O)[C@@H](CO)NC(=O)C(Cl)Cl)cc1` [NO-CAM] gave a Kd at CmlI [1] of 8.6 ± 1 mM.
